Measured values as given in patent publication US11802135B2, “Lysophosphatidic acid derivative” (MITSUBISHI TANABE PHARMA CORPORATION, priority 2021, dated 2023).
Where a name gives a salt, the structure may show the parent alone. Read-outs that look alike come from different tables or passages of the source.

Columns and labels:
human LPA4 receptor = target: T1, human LPA4 receptor (Homo sapiens, UniProt Q99677); assay: LPA4/SRE-luc reporter assay in RH7777 cells stably expressing human LPA4 receptor and SRE-Luc2; format: cell-based; settings: for EC50: read-out: LPA4/SRE-luc EC50
T1 construct: expressed in transfected cells; host or cells: rat hepatocellular carcinoma cell line RH7777, targeted integration at the rRosa26 site
T1 sequence (Q99677 whole entry): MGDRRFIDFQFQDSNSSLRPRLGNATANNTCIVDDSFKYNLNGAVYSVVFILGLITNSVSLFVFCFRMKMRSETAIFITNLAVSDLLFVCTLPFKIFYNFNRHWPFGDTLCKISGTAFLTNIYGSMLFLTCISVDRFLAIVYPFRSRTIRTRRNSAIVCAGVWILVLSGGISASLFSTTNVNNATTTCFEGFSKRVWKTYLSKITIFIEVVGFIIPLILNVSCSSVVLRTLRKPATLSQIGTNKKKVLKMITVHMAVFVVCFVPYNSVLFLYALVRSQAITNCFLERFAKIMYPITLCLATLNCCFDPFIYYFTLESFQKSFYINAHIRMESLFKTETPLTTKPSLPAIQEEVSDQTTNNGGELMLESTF
Experimental: (§1) A stably expressing cell line that constantly expresses the human LPA4 receptor and SRE-Luc2 was established by the gene targeting introduction method of the rat hepatocellular carcinoma cell line RH7777 into rRosa26 site. Similarly, stably expressing cell lines for human LPA1 receptor and SRE-Luc2 were also established. Each cell line was seeded on a collagen-coated dish and maintained in culture, and cells were collected with trypsin EDTA and the required number (5×10^3 cells/well) was seeded on a 96-well plate. After culturing overnight at 37° C., LPA (Avanti Polar Lipids, Inc.) or each Example compound diluted with an assay medium added or not added with BSA was added, and the cells were cultured at 37° C. for 6 hr. Thereafter, a luciferase detection reagent (Bright-Glo, Promega) was added, and the chemiluminescence amount was quantified with an Envision (registered trade mark) multi-label counter (PerkinElmer) and used as an index of agonist activity.
(§2) The EC50 value of LPA or each Example compound was calculated using the […] Graph pad Prism for Windows ver.5.02 and ver.7.04. % Emax was expressed as the ratio of the maximum response (Emax) of LPA or each Example compound to the maximum response (Emax) of the positive control compound VPC 31144S (N-{(1S)-2-hydroxy-1-[(phosphonooxy)methyl]ethyl}(9Z) cctadec-9-enamide), with the Emax of the positive control compound VPC 31144S as 100%.

human LPA1 receptor = target: T2, human LPA1 receptor (Homo sapiens, UniProt Q92633); assay: LPA1/SRE-luc reporter assay in RH7777 cells stably expressing human LPA1 receptor and SRE-Luc2; format: cell-based; settings: read-out: LPA1/SRE-luc EC50
T2 construct: expressed in transfected cells; host or cells: rat hepatocellular carcinoma cell line RH7777 (made 'similarly' to the LPA4 line)
T2 sequence (Q92633 whole entry): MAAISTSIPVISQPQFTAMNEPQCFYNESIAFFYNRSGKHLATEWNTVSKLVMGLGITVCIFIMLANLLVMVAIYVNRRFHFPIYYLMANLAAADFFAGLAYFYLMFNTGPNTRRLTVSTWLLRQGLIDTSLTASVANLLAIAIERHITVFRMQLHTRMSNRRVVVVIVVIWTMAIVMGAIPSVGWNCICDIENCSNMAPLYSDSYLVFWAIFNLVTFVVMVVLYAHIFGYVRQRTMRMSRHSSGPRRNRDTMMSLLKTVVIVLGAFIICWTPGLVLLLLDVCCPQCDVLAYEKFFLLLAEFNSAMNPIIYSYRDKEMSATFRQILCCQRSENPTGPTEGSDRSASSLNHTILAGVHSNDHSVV
Experimental: as §1, §2

Balb/c nu/nu mouse = assay: Gel blood flow ratio in mice transplanted with Matrigel containing basicFGF; format: in vivo; settings: 3 mg/kg tail vein once per day, day 5 to 7 after transplantation; vs solvent administration group, t-test p<0.01
Experimental: A 5-week-old male Balb/c nu/nu mouse (CLEA Japan, Inc.) was subcutaneously transplanted with 500 μL of Matrigel (Corning) admixed with recombinant mouse basicFGF (Biobyt Ltd.) to a final concentration of 200 ng/mL. The test compound was dissolved in a 50% aqueous ethanol solution at a concentration of 10 mg/mL to give a stock solution, diluted with phosphate-buffered saline (PBS) immediately before administration, and used for consecutive administration into the tail vein of mouse at a dose of 3 mg/kg once per day from the 5th day to the 7th day of the transplantation. On the 7th day of transplantation, after 4 hours from the administration of the test compound, Genhance750 (PerkinElmer) was administered to the tail vein, and 20 min later under isoflurane anesthesia, whole body fluorescence at 800 nm was imaged using an in vivo analyzer (IVIS Spectrum, PerkinElmer) at an excitation wavelength of 745 nm. The gel blood flow ratio was calculated by dividing the radiance of Matrigel by the radiance of the auricle.

[1] = tested on: mouse lung cancer cell line LLC-1; assay: Tumor volume in mice transplanted with LLC-1, combination with paclitaxel; format: in vivo
Experimental: An 8-week-old female […] mouse (Nippon SLC) was subcutaneously transplanted with 1×10^6 cells/100 μL of mouse lung cancer cell line LLC-1 suspended in D-MEM medium containing 50% Matrigel (Corning). On the 9th day after transplantation of the cell line, 8 mice were grouped such that the tumor volume and body weight were uniform (Day 0). The tumor volume was calculated by measuring the minor axis and the major axis of the tumor with a vernier caliper (minor axis x minor axis x major axis/2). Example compound 16 was intraperitoneally administered every day from Day 0 at a dose of 30 mg/kg. As an existing anticancer drug, paclitaxel (paclitaxel injection, Pfizer) was intraperitoneally administered to mice at a dose of 20 mg/kg twice in total on Day 3 and Day 10. The tumor volume of each group was calculated every other day from Day 0 to Day 15. Phosphate-buffered saline in the same amount as the drug solution was administered to the solvent administration group.

[2] = Evaluation of chemical stability, preserved at 60° C. (sealed) for a week, UPLC; format: physicochemical
Experimental: About 0.5 mg of each of test sample (lysophosphatidic acid (LPA) and Example compound 16) preserved at 60° C. (sealed) for a week and non-preserved sample (at the start of testing) was weighed, and dissolved in a mixed solution (1 mL) of acetonitrile/water (1:1) to prepare test solutions. Test was performed by the liquid chromatographic method under the following conditions, and individual peak area % was determined. It was measured by Waters ACQUITY UPLC under the following conditions. • Detector: photodiode array (measurement wavelength 220 nm) • Column: Waters ACQUITY BEH C18 (2.1 mm×100 mm, 1.7 μm) • Column temperature: constant temperature around 40° C. • Mobile phase: Solution A; […] ammonium acetate in water (pH 8.5), • Solution B; […] ammonium acetate in acetonitrile/water (17:3) (pH8.5) • Concentration gradient control: B % 2→100% (15 min) • Flow rate: 0.5 mL/min • Injection volume: […] <Experimental Results>

[3] = RH7777, BSA added, Emax of positive control VPC 31144S as 100%, read-out: LPA4/SRE-luc % Emax
[4] = RH7777, BSA not added, Emax of positive control VPC 31144S as 100%, read-out: LPA4/SRE-luc % Emax

EC50 (human LPA4 receptor; BSA added)	Emax (human LPA4 receptor; [3])	EC50 (human LPA1 receptor; BSA added)	EC50 (human LPA4 receptor; BSA not added)	Emax (human LPA4 receptor; [4])	EC50 (human LPA1 receptor; BSA not added)	SMILES	gel blood flow ratio (Balb/c nu/nu mouse)	other results
1.9 nM	129%	> 10000 nM				O=C(CCCCCCCCc1ccc(-c2ccccc2)cc1)N1CC(OP(=O)(O)O)C1 [Example compound 82, 1-[9-(Biphenyl-4-yl)nonanoyl]azetidin-3-yl dihydrogen phosphate]	significantly increased	
						CC(=O)O[C@H]1C(=O)[C@@]2(C)[C@H]([C@H](OC(=O)c3ccccc3)[C@]3(O)C[C@H](OC(=O)[C@H](O)[C@@H](NC(=O)c4ccccc4)c4ccccc4)C(C)=C1C3(C)C)[C@]1(OC(C)=O)CO[C@@H]1C[C@@H]2O [paclitaxel, reference compound]		tumor volume on Day 15 ([1]; paclitaxel alone 20 mg/kg i.p. Day 3 and Day 10, vs solvent administration group, t-test p<0.05): significantly smaller
			< 41 nM	239%	> 10000 nM	CCCCc1ccc(CCCCCCCCC(=O)N2CC(OP(=O)(O)O)C2)cc1 [Example compound 70, 1-[9-(4-Butylphenyl)nonanoyl]azetidin-3-yl dihydrogen phosphate ammonium salt]	significantly increased	
4.1 nM	94%	> 3000 nM				CC(C)(C)c1ccc(CCCCCCCCC(=O)N2CC(OP(=O)(O)O)C2)cc1 [Example compound 84, 1-[9-(4-tert-Butylphenyl)nonanoyl]azetidin-3-yl dihydrogen phosphate]	significantly increased	
						CCc1ccc(CCCCCCCCC(=O)N2CC(OP(=O)(O)O)C2)cc1 [Example compound 16, 1-[9-(4-Ethylphenyl)nonanoyl]azetidin-3-yl dihydrogen phosphate]		tumor volume on Day 15 ([1]; 30 mg/kg i.p. every day combined with paclitaxel 20 mg/kg, vs paclitaxel alone group, t-test p<0.01): further reduced significantly; chemical stability in comparison with LPA ([2]; 60° C. (sealed) for a week): high chemical stability; total ratio (%) of increment of related substances ([2]; 60° C., humidity without artificial control, 1 week): 1.29%
			46 nM	94%	> 10000 nM	CCCCCCCCCCOc1cccc(CCC(=O)N(CCCCOC)CCOP(=O)(O)O)c1 [Example compound 47, 2-[{3-[3-(Decyloxy)phenyl]propanoyl}(4-methoxybutyl)amino]ethyl dihydrogen phosphate ammonium salt]		
< 41 nM	87%	> 10000 nM				CCCCCCCCCCCOc1cccc(-c2ccnc(NC[C@@H](C)OP(=O)(O)O)n2)c1 [Example compound 134, (2R)-1-({4-[3-(Undecyloxy)phenyl]pyrimidinyl}amino)propan-2-yl dihydrogen phosphate]		
			< 41 nM	148%	> 3000 nM	CCCCCCCCCCOc1cccc(CCC(=O)N(CCOP(=O)(O)O)Cc2ccncc2)c1 [Example compound 58, 2-[{3-[3-(Decyloxy)phenyl]propanoyl}(pyridin-4-ylmethyl)amino]ethyl dihydrogen phosphate ammonium salt]		

SMILES	EC50 (human LPA4 receptor; BSA added)	Emax (human LPA4 receptor; [3])	EC50 (human LPA1 receptor; BSA added)	EC50 (human LPA4 receptor; BSA not added)	Emax (human LPA4 receptor; [4])	EC50 (human LPA1 receptor; BSA not added)	gel blood flow ratio (Balb/c nu/nu mouse)	other results
CCc1ccc(CCCCCCCCC(=O)N2CC(OP(=O)(O)O)C2)cc1 [Example 16, 1-[9-(4-Ethylphenyl)nonanoyl]azetidin-3-yl dihydrogen phosphate]				12 nM		> 10000 nM	significantly increased	Emax (human LPA4 receptor; RH7777, read-out: LPA4/SRE-luc % Emax): 162%
